From patent US10092492B2, “Cosmetic composition comprising spiculisporic acid and at least one surfactant” (L'OREAL, priority 2013, dated 2018)
“And” between values parts separate entries of the source, which are not always exact repeats. Identical values can stand only once. “Also recorded” adds a separate entry of the source.

What was measured:
[1] = Example 1: pH and aspect of S-acid solutions neutralized with NaOH (30%) or KOH (50%), stabilized at 4° C. and RT; type: physicochemical; set-up: key to aspect of the solution (precipitation mark): The marked solutions (*) correspond to precipitated solutions; conditions: for pH T4° C. 24 h / pH T4° C. 30 days / pH TRT 24 h / pH TRT 30 days / pH TRT t0: R1=2
Description: In order to neutralize spiculisporic acid (S-acid), two moles of base were used for one mole of S-acid, i.e., R1=2.
Increasing concentration ranges of S-acid from 1% to 10% were achieved, either with NaOH (solution at 30% m/m), or with KOH (solution at 50% m/m).
The solutions were made twice (A and B) in order to evaluate the reproducibility of the results. All the ranges of the neutralized solutions with both bases are limpid at t0 and the pH values obtained range from 5.19 to 6.79.
The marked solutions (*) correspond to precipitated solutions.

[2] = cited from earlier work
[3] = Example 2: pH and macroscopic observation of S-acid neutralized with NaOH (R1=1.1) with surfactants, stored at 4° C.; type: physicochemical; conditions: for Macroscopic observation after 12 days after storage: stored in the dark at 4° C., listed as S-acid alone
Method: Solutions, containing S-acid at 4% or 8% (neutralized with an amount of NaOH calculated in order to obtain R1=1.1) and surfactants, were made, as shown in the table below:
The solutions were prepared according to the following procedure:
S-acid aqueous solution is prepared. The base is added under stirring. The resulting mixture is stirred at 40° C. Then the surfactant is added under stirring. The solution is then stored in the dark at 4° C.

[4] = Example 2: aspect and pH of S-acid pre-solubilized with KOH (R1=2) in association with surfactants; type: physicochemical; conditions: for pH t0 RT / pH RT, 20 days after storage / pH T = 4° C., 20 days after storage: KOH R1=2
Description: Solutions, containing S-acid at 4% or 8% (neutralized with an amount of KOH calculated in order to obtain the di-potassium salt of S-acid, i.e., R1=2) and surfactants, were made.

[5] = KOH solution at 50%, S-acid 1%, A and B
[6] = KOH solution at 50%, S-acid 2%, A and B
[7] = NaOH solution at 30%, S-acid 1%, A and B
[8] = NaOH solution at 30%, S-acid 2%, A and B
[9] = S-acid 4% MA, surfactant 4% where present

Structure (SMILES): CCCCCCCCCCC(C(=O)O)C1(C(=O)O)CCC(=O)O1 (centres unmarked) [S-acid, 4,5-dicarboxy-4-pentadecanolide]
- pH T4° C. 24 h [1, 5]: 6.09 and 5.26
- pH T4° C. 30 days [1, 5]: 5.86 and 5.39
- pH TRT 24 h [1, 5]: 6.03 and 5.28
- pH TRT 30 days [1, 5]: 5.69 and 5.18
- pH TRT t0 [1, 5]: 5.93 and 5.22
- pH T4° C. 24 h [1, 6]: 5.48 and 5.61
- pH T4° C. 30 days [1, 6]: 5.46 and 5.53
- pH TRT 24 h [1, 6]: 5.67 and 5.59
- pH TRT 30 days [1, 6]: 5.39 and 5.59
- pH TRT t0 [1, 6]: 5.4 and 5.19
- aspect of the solution (precipitation mark) ([1]; KOH, S-acid 2%, 4° C. 24 h): *
- aspect of the solution (precipitation mark) ([1]; KOH, S-acid 2%, 4° C. 30 days): *
- aspect of the solution (precipitation mark) ([1]; KOH, S-acid 2%, RT 24 h): *
- aspect of the solution (precipitation mark) ([1]; KOH, S-acid 2%, RT 30 days): *
- pH T4° C. 24 h [1, 7]: 5.78 and 5.49
- pH T4° C. 30 days [1, 7]: 5.69 and 5.41
- pH TRT 24 h [1, 7]: 5.78 and 5.49
- pH TRT 30 days [1, 7]: 5.59 and 5.42
- pH TRT t0 ([1]; NaOH solution at 30%, S-acid 1%, duplicate solutions A and B): 5.66 and 5.37
- pH T4° C. 24 h [1, 8]: 5.7 and 5.78
- pH T4° C. 30 days [1, 8]: 5.72 and 5.69
- pH TRT 24 h [1, 8]: 5.7 and 5.74
- pH TRT 30 days [1, 8]: 5.64 and 5.49
- pH TRT t0 ([1]; NaOH solution at 30%, S-acid 2%, duplicate solutions A and B): 5.64 and 5.6
- aspect of the solution (precipitation mark) ([1]; NaOH, S-acid 2%, 4° C. 24 h): *
- aspect of the solution (precipitation mark) ([1]; NaOH, S-acid 2%, 4° C. 30 days): *
- aspect of the solution (precipitation mark) ([1]; NaOH, S-acid 2%, RT 30 days): *
- stability of the solutions after 30 days at 4° C. ([1]; from 2% of S-acid, both bases (NaOH, KOH)): crystallization
- solubility in water at a high temperature ([2]; high temperature): partly soluble
- solubility in ethanol ([2]; room temperature): soluble
- solubility in fats ([2]; room temperature): insoluble
- solubility in water ([2]; room temperature): insoluble
- pH t0 RT ([3]; S-acid 4% MA, NaOH R1=1.1): 4.89
- Macroscopic observation after 12 days after storage ([3]; S-acid 4% MA, NaOH R1=1.1): precipitation; also recorded: precipitate
- pH t0 RT ([3]; S-acid 8% MA, NaOH): 5.11
- Macroscopic observation after 12 days after storage ([3]; S-acid 8% MA, NaOH): precipitation; also recorded: precipitate
- pH t0 RT ([4]; S-acid 4% MA, surfactant 4% active material where present): 5.97
- pH RT, 20 days after storage [4, 9]: 6.02
- pH T = 4° C., 20 days after storage [4, 9]: 6.01
- result after 20 days of storage at 4° C. (in words) ([4]; S-acid 4%, KOH R1=2, surfactant 4% where present): precipitation
- pH RT, 20 days after storage ([4]; S-acid 8% MA, no surfactant): 6.47
- pH T = 4° C., 20 days after storage ([4]; S-acid 8% MA, no surfactant): 6.47
- pH t0 RT ([4]; S-acid 8% MA, no surfactant): 6.43
- result after 20 days of storage at 4° C. (in words) ([4]; S-acid 8%, KOH R1=2, no surfactant): precipitation
